Source: article PMC12165799, “Antimicrobial peptide developed with machine learning sequence optimization targets drug resistant Staphylococcus aureus in mice” (The Journal of Clinical Investigation, 2025)

Assays:
S. aureus MW2 = assay: Minimal inhibitory concentration (MIC) assay, broth microdilution; type: cell-based, Staphylococcus aureus; conditions: S. aureus MW2; broth microdilution, TSB, 1 × 10^6 CFU/ml, 37°C 18 h, OD600, duplicate
Procedure: 300 Synthesis of peptides
302 Piscataway, NJ, USA).
(§1) 305 Minimal inhibitory concentration (MIC) assay
(§2) We made serial dilutions of 10×
(§3) We determined the MIC using OD600
(§4) Accordingly, we added 150 mM NaCl,
(§5) 319 established protocol (5).

[1] = HPLC retention time on C18 reverse-phase column; type: physicochemical
From the text: Table 1 Physical parameters and minimal inhibitory concentrations of citropin 1.1-derived peptides against S. aureus MW2 | column: rT^D (min)

[2] = tested on: S. aureus VRS1 (VRSA) exponential and persister cells; assay: S. aureus persister cell and time-kill assays (VRS1); type: cell-based, Staphylococcus aureus; conditions: within 120 minutes; bithionol 10 μg/mL, linezolid 100 μg/mL
Procedure: as §1, §2, §3, §4, §5
(§6) 323 aureus VRS1) in PBS. To assess the killing kinetics of CIT-8 in persister cells, we added 1 ml of
(§7) 324 cell suspension to the wells of a 2-ml deep-well assay block (Cat no. 3960, Corning, NY, USA)
(§8) We also included ciprofloxacin (at 10 μg/ml) for S.
(§9) 326 aureus MW2 and linezolid (100 μg/ml) for S. aureus VRS1 as antibiotic controls. Additionally,
(§10) 327 we included bithionol (at 10 μg/ml) as a positive control, known for its ability to kill stationary
(§11) 328 phase persister cells (6). We incubated the plates at 37°C, with shaking at 225 rpm. At specific
(§12) 329 times (0, 15, 30, 60, and 120 min), we collected 10 μl samples, diluted them serially, and then
(§13) 330 plated them on tryptic soy agar (TSA) (BD Difco, NJ, USA) plates. We incubated the TSA plates
(§14) 331 for 18 hours at 37°C for colony counting. We performed these experiments in duplicate. As a
(§15) 332 comparison, we prepared the exponential cells of S. aureus MW2 and VRS1 in PBS and analyzed
(§16) 333 their killing kinetics in the same manner as described for persister cells.

HepG2 cells = assay: Mammalian cell cytotoxicity assay
Procedure: 410 the HepG2 cells at 37°C in 5% CO2 in Dulbecco’s Modified Eagle Medium (DMEM) (Gibco, MA,
We harvested and resuspended cells in fresh DMEM

[3] = tested on: S. aureus MW2 (MRSA) exponential and persister cells; assay: S. aureus persister cell and time-kill assays (MW2); type: cell-based, Staphylococcus aureus; conditions: within 120 minutes; ciprofloxacin 10 μg/mL, bithionol 10 μg/mL
Procedure: as §1, §2, §3, §4, §5, §6, §7, §8, §9, §10, §11, §12, §13, §14, §15, §16

[4] = tested on: S. aureus MW2 skin infection; assay: Skin-abraded murine infection, established infection model, bacterial load; type: in vivo, mice; parameters: Bacterial load from skin specimens, established infection model / bacterial load in skin, Sup. Fig. 12: unit not given here; conditions: for Bacterial load from skin specimens, established infection model: 2% ointment 24 hours after infection; for bacterial load in skin, Sup. Fig. 12: 2%, mice
Procedure: (§17) 599 In vivo murine skin infection and treatment
(§18) 600 We used a topical skin-abraded murine infection model with minor modifications to test
(§19) 601 the in vivo efficacy of the CIT-8 peptide (25). We performed all mouse studies following the
(§20) 602 protocol approved by the Institutional Animal Care and Use Committee. In brief, we anesthetized
(§21) 603 female C57BL/6 mice (6 weeks) (Jackson Laboratory, Bar Harbor, ME, USA) with ketamine-
(§22) 604 xylazine (90 mg/kg ketamine and 10 mg/kg xylazine) via intraperitoneal injection. We shaved the
(§23) 605 dorsal side of the mice in the middle of the back (area=2 cm2). To disrupt skin integrity, we tape-
(§24) 606 stripped with Tensoplast® seven times in succession, replacing the tape each time, resulting in
(§25) 607 visibly damaged skin. We infected the damaged skin area with 1 × 10^7 CFU of S. aureus MW2
(§26) 608 (exponential phase bacteria in PBS) with an inoculum of 50 µl using a pipette tip. Ten minutes
(§27) 609 (prophylactic model) and 24 h (established model) after bacterial inoculation, we applied 30 mg
(§28) 610 of 1 and 2% (w/w) CIT-8 ointment in a white petroleum jelly base (Cat no. 19-090-843, Fisher
(§29) 611 Scientific, MA, USA) to the skin. We also included animal groups treated with only petroleum
(§30) 612 jelly or with 2% commercial mupirocin ointment as negative and positive controls, respectively.
(§31) 613 For pain management, we used the analgesic buprenorphine SR (0.05 mg/kg).
(§32) 614 After 24 h of treatment, we euthanized the animals, separated the skin from the underlying
(§33) 615 fascia and muscle tissue, and excised about 2 cm2 of skin from the infected area. We ground the
(§34) 616 skin in 1ml of PBS buffer (Gibco, MD, USA). We serially diluted 100 µl of the solution in PBS
(§35) 617 and plated it on Remel™ TSA plates (Fisher, MA, USA) to estimate viable colony counts after 18
(§36) 618 h of incubation at 37 °C. Further, we added 10 µl of EDTA-Free, protease inhibitor cocktail Set III
(§37) 619 (Millipore Sigma, MA, USA) to 500 µl of the ground skin PBS solution for cytokine estimation.
(§38) 620 The Cytokine Core, LLC (Indianapolis, IN, USA) performed the cytokine concentration analysis

[5] = tested on: S. aureus MW2 skin infection; assay: Skin-abraded murine infection, prophylactic (acute) model, bacterial load; type: in vivo, mice; conditions: for Bacterial load from skin specimens, prophylactic model: 2% ointment 10 minutes after infection
Procedure: as §17, §18, §19, §20, §21, §22, §23, §24, §25, §26, §27, §28, §29, §30, §31, §32, §33, §34, §35, §36, §37, §38

## H-GLFKVIKKVAKVI-NH2 [CIT-4]
S. aureus MW2
  MIC SA: > 32 µg/mL
[1]
  rT (HPLC retention time): 17.776 min

## H-GLFSVIKKLLSVI-NH2 [CIT-6]
S. aureus MW2
  MIC SA: 2 µg/mL
[1]
  rT (HPLC retention time): 23.302 min

## CC(=O)NC[C@H]1CN(c2ccc(N3CCOCC3)c(F)c2)C(=O)O1 [linezolid]
[2]
  Reduction of VRSA persister cells: no impact
  Reduction of exponentially growing VRSA: 0.7 logs

## H-GLFKVIKKVASVI-NH2 [CIT-3]
S. aureus MW2
  MIC SA: > 32 µg/mL
[1]
  rT (HPLC retention time): 17.400 min

## CNC(C)C1CCC(N)C(OC2C(N)CC(N)C(OC3OCC(C)(O)C(NC)C3O)C2O)O1 (centres unmarked) [gentamicin, reference compound]
HepG2 cells; 4 μg/ml, replicate 1
  HepG2 cell viability, Sup. Fig. 4B: 100.314
HepG2 cells; 4 μg/ml, replicate 2
  HepG2 cell viability, Sup. Fig. 4B: 105.383
HepG2 cells; 4 μg/ml, replicate 3
  HepG2 cell viability, Sup. Fig. 4B: 105.587
HepG2 cells; 8 μg/ml, replicate 1
  HepG2 cell viability, Sup. Fig. 4B: 101.846
HepG2 cells; 8 μg/ml, replicate 2
  HepG2 cell viability, Sup. Fig. 4B: 103.015
HepG2 cells; 8 μg/ml, replicate 3
  HepG2 cell viability, Sup. Fig. 4B: 101.846
HepG2 cells; 16 μg/ml, replicate 1
  HepG2 cell viability, Sup. Fig. 4B: 102.511
HepG2 cells; 16 μg/ml, replicate 2
  HepG2 cell viability, Sup. Fig. 4B: 103.671
HepG2 cells; 16 μg/ml, replicate 3
  HepG2 cell viability, Sup. Fig. 4B: 100.107
HepG2 cells; 32 μg/ml, replicate 1
  HepG2 cell viability, Sup. Fig. 4B: 102.999
HepG2 cells; 32 μg/ml, replicate 2
  HepG2 cell viability, Sup. Fig. 4B: 106.118
HepG2 cells; 32 μg/ml, replicate 3
  HepG2 cell viability, Sup. Fig. 4B: 103.265
HepG2 cells; 64 μg/ml, replicate 1
  HepG2 cell viability, Sup. Fig. 4B: 103.75
HepG2 cells; 64 μg/ml, replicate 2
  HepG2 cell viability, Sup. Fig. 4B: 104.801
HepG2 cells; 64 μg/ml, replicate 3
  HepG2 cell viability, Sup. Fig. 4B: 97.7499
HepG2 cells; 128 μg/ml, replicate 1
  HepG2 cell viability, Sup. Fig. 4B: 104.41
HepG2 cells; 128 μg/ml, replicate 2
  HepG2 cell viability, Sup. Fig. 4B: 112.88
HepG2 cells; 128 μg/ml, replicate 3
  HepG2 cell viability, Sup. Fig. 4B: 101.795

## H-GLFDVIKKLLSVI-NH2 [CIT-5]
S. aureus MW2
  MIC SA: > 32 µg/mL
[1]
  rT (HPLC retention time): 22.300 min

## O=C(O)c1cn(C2CC2)c2cc(N3CCNCC3)c(F)cc2c1=O [Ciprofloxacin]
[3]
  Reduction of MRSA persister cells: did not have any effect

## H-GLFDVIKKVASVI-NH2 [CIT-1]
S. aureus MW2
  MIC SA: > 32 µg/mL
[1]
  rT (HPLC retention time): 17.570 min

## Oc1c(Cl)cc(Cl)cc1Sc1cc(Cl)cc(Cl)c1O [bithionol]
[3]
  Reduction of MRSA persister cells: 1.5 logs
[2]
  Reduction of VRSA persister cells: 1.5 logs
  Reduction of exponentially growing VRSA: 1.0 logs

## C/C(=C\C(=O)OCCCCCCCCC(=O)O)C[C@@H]1OC[C@H](C[C@@H]2O[C@H]2[C@@H](C)[C@H](C)O)[C@@H](O)[C@H]1O [mupirocin, reference compound]
[4]; animal 1
  Bacterial load from skin specimens, established infection model: 5546493
  bacterial load in skin, Sup. Fig. 12: 84745.8
[4]; animal 2
  Bacterial load from skin specimens, established infection model: 5663717
  bacterial load in skin, Sup. Fig. 12: 264317
[4]; animal 3
  Bacterial load from skin specimens, established infection model: 38314176
  bacterial load in skin, Sup. Fig. 12: 520833
[4]; animal 4
  Bacterial load from skin specimens, established infection model: 4793289
  bacterial load in skin, Sup. Fig. 12: 633914
[4]; animal 5
  Bacterial load from skin specimens, established infection model: 8342990
  bacterial load in skin, Sup. Fig. 12: 864198
[4]; animal 6
  Bacterial load from skin specimens, established infection model: 7083333
  bacterial load in skin, Sup. Fig. 12: 285714
[4]; animal 7
  Bacterial load from skin specimens, established infection model: 21857924
  bacterial load in skin, Sup. Fig. 12: 1465201
[4]; animal 8
  Bacterial load from skin specimens, established infection model: 14962594
  bacterial load in skin, Sup. Fig. 12: 754717
[4]; 2% w/w ointment, single dose 24 hours after inoculation, n = 8
  Reduction of S. aureus MW2 vs vehicle, established infection model: 2.4 log
[5]; animal 1
  Bacterial load from skin specimens, prophylactic model: 500000
[5]; animal 2
  Bacterial load from skin specimens, prophylactic model: 380952
[5]; animal 3
  Bacterial load from skin specimens, prophylactic model: 320000
[5]; animal 4
  Bacterial load from skin specimens, prophylactic model: 47058.8
[5]; animal 5
  Bacterial load from skin specimens, prophylactic model: 200000
[5]; animal 6
  Bacterial load from skin specimens, prophylactic model: 34782.6
[5]; animal 7
  Bacterial load from skin specimens, prophylactic model: 176000
[5]; animal 8
  Bacterial load from skin specimens, prophylactic model: 533333
[5]; animal 9
  Bacterial load from skin specimens, prophylactic model: 769231
[5]; animal 10
  Bacterial load from skin specimens, prophylactic model: 1538462
[5]; animal 11
  Bacterial load from skin specimens, prophylactic model: 289655
[5]; animal 12
  Bacterial load from skin specimens, prophylactic model: 252632
[5]; 2% w/w ointment, single treatment 10 minutes after inoculation, n = 12
  Reduction of S. aureus MW2 burden vs vehicle, prophylactic model: 2.8 log

## H-GLFSVIKKVASVI-NH2 [CIT-2]
S. aureus MW2
  MIC SA: > 32 µg/mL
[1]
  rT (HPLC retention time): 15.711 min

## H-GLFKVIKKLLSVI-NH2 [CIT-7]
S. aureus MW2
  MIC SA: 4 µg/mL
[1]
  rT (HPLC retention time): 19.956 min
